pKd: −log10 of the molar value. Read-outs that look alike come from different tables or passages of the source.
How the values were obtained:
[1] = target: JAK2 kinase domain (JH1) (Homo sapiens (Human), UniProt O60674); assay: JAK2 Radioactive Kinase Assay; type: biochemical; conditions: for inhibition at 10 µM: read-out: JAK2 JH1% Inhibition @ 10 μM
Summary of the method: (§1)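 Values are single-concentration percent inhibition figures. They were obtained with 10 μM compound in a radioactivity-based kinase assay run separately on each enzyme.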

[2] = target: human TYK2 (JH2domain-pseudokinase) (Homo sapiens (Human), UniProt P29597); assay: TYK2 JH2 Domain Binding Assay (KINOMEscan)
Sequence of human TYK2 (JH2domain-pseudokinase) (P29597 556-888): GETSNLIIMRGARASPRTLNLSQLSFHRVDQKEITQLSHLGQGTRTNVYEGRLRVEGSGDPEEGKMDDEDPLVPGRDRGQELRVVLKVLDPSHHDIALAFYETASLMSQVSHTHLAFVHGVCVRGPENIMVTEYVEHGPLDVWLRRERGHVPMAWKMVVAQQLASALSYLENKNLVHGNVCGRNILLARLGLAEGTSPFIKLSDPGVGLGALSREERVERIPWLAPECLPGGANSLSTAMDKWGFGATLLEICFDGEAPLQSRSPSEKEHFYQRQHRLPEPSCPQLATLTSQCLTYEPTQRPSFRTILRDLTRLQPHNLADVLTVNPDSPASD
Summary of the method: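 Displacement of a DNA-tagged TYK2 JH2 fusion (human, aa G556–D888, HEK293 extract, <0.1 nM) from ligand-coated beads over 1 h at RT; binding buffer PBS/0.05% Tween 20/10 mM DTT/0.1% BSA.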

[3] = target: Tyk2 kinase domain (DH1) (Homo sapiens (Human), UniProt P29597); assay: Tyk2 Radioactive Kinase Assay; type: biochemical; conditions: for inhibition at 10 µM: read-out: Tyk2 JH1% Inhibition @ 10 μM
Sequence of Tyk2 kinase domain (DH1) (P29597 897-1176): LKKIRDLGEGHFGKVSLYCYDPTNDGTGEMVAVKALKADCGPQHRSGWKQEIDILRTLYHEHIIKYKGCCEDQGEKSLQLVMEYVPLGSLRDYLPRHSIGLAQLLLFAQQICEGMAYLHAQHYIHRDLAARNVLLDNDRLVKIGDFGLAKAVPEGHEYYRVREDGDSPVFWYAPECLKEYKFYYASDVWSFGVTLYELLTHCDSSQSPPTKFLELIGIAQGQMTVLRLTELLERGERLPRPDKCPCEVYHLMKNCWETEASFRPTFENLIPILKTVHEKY
Summary of the method: as §1

Sequence of JAK2 kinase domain (JH1) (O60674 849-1124): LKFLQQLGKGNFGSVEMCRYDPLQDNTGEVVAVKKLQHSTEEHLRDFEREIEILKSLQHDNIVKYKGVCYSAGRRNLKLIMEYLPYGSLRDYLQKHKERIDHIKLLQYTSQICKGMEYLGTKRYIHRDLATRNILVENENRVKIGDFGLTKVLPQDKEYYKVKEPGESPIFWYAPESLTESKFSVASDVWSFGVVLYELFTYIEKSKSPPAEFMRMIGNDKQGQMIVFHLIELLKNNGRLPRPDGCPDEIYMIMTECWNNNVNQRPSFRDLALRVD

Compound | inhibition at 10 µM ([1]; compound at 10 μM, ATP 10 μM) [%] | pKd [2] | inhibition at 10 µM ([3]; compound at 10 μM, ATP 10 μM) [%] | inhibition at 10 µM ([1]; 10 μM compound, 10 μM ATP) [%] | inhibition at 10 µM ([3]; 10 μM compound, 10 μM ATP) [%] | JAK2 JH1% Inhibition @ 10 μM ([1]; 10 μM compound, 10 μM ATP) | Tyk2 JH1% Inhibition @ 10 μM ([3]; 10 μM compound, 10 μM ATP)
CNc1cc(Nc2cccn([C@@H]3CCCOC3)c2=O)nc2c(C(=O)N[C@H]3CC[C@H](O)C3)cnn12 (stereo in doubt) [I-702, N-(3-hydroxycyclopentyl)-7-(methylamino)-5-((2-oxo-1-((S)-tetrahydro-2H-pyran-3-yl)-1,2-dihydropyridin-3-yl)amino)pyrazolo[1,5-a]pyrimidine-3-carboxamide] | < 50 | 9.00 to 9.70 | < 50 |  |  |  | 
CNc1cc(Nc2cccn([C@H]3CCCOC3)c2=O)nc2c(C(=O)N[C@H]3CCC[C@H](O)C3)cnn12 (stereo in doubt) [I-704, N-(3-hydroxycyclohexyl)-7-(methylamino)-5-((2-oxo-1-((R)-tetrahydro-2H-pyran-3-yl)-1,2-dihydropyridin-3-yl)amino)pyrazolo[1,5-a]pyrimidine-3-carboxamide] | < 50 | 9.00 to 9.70 | < 50 |  |  |  | 
CNc1cc(-c2cn(CCN3CCOCC3)c3ncccc23)nc2c(C(=O)N[C@H]3COC[C@H]3O)cnn12 (stereo in doubt) [I-791, N-(4-hydroxytetrahydrofuran-3-yl)-7-(methylamino)-5-(1-(2-morpholinoethyl)-1H-pyrrolo[2,3-b]pyridin-3-yl)pyrazolo[1,5-a]pyrimidine-3-carboxamide] | < 50 | 9.00 to 9.70 | < 50 |  |  |  | 
CNc1cc(Nc2cccnc2OC)nc2c(C(=O)N[C@H]3CC[C@@]3(C)O)cnn12 (stereo in doubt) [I-911, N-(2-hydroxy-2-methylcyclobutyl)-5-((2-methoxypyridin-3-yl)amino)-7-(methylamino)pyrazolo[1,5-a]pyrimidine-3-carboxamide] |  | 8.00 to 9.00 |  |  |  | A (percent inhibition at 10 μM lower than 50) | A (percent inhibition at 10 μM lower than 50)
CNc1cc(Nc2cccn(C(C)C)c2=O)nc2c(C(=O)N[C@H]3CC[C@@]3(C)O)cnn12 (stereo in doubt) [I-1116, N-(2-hydroxy-2-methylcyclobutyl)-5-((1-isopropyl-2-oxo-1,2-dihydropyridin-3-yl)amino)-7-(methylamino)pyrazolo[1,5-a]pyrimidine-3-carboxamide] |  | < 8.00 |  | < 50 | < 50 |  | 
CNc1cc(Nc2cnn(C)c2)nc2c(C(N)=O)cnn12 [I-11] | < 50 | 8.00 to 9.00 | < 50 |  |  |  | 
CNc1cc(Nc2cccn(C3CCCCC3)c2=O)nc2c(C(N)=O)cnn12 [I-12] | < 50 | 8.00 to 9.00 | < 50 |  |  |  | 
CNc1cc(Nc2cccn(-c3nccs3)c2=O)nc2c(C(N)=O)cnn12 [I-15] | < 50 | 9.00 to 9.70 | < 50 |  |  |  | 
CCOc1ccc(-n2cccc(Nc3cc(NC)n4ncc(C(N)=O)c4n3)c2=O)nn1 [I-19] | < 50 | 8.00 to 9.00 | < 50 |  |  |  | 
Cc1cc(C)cc(Nc2cc(N)n3ncc(C(N)=O)c3n2)c1 [I-21] | 70 to 90 | 9.00 to 9.70 | < 50 |  |  |  | 
NC(=O)c1cnn2c(N)cc(Nc3cccc(N4CCOCC4)c3Cl)nc12 [I-22] | 70 to 90 | 9.00 to 9.70 | < 50 |  |  |  | 

Further lines, with some results ahead:

inhibition at 10 µM ([1]; compound at 10 μM, ATP 10 μM) [%] | pKd [2] | inhibition at 10 µM ([3]; compound at 10 μM, ATP 10 μM) [%] | inhibition at 10 µM ([1]; 10 μM compound, 10 μM ATP) [%] | inhibition at 10 µM ([3]; 10 μM compound, 10 μM ATP) [%] | Compound | JAK2 JH1% Inhibition @ 10 μM ([1]; 10 μM compound, 10 μM ATP) | Tyk2 JH1% Inhibition @ 10 μM ([3]; 10 μM compound, 10 μM ATP)
50 to 70 | 9.00 to 9.70 | < 50 |  |  | CNc1cc(Nc2cccc(C3CCCCO3)n2)nc2c(C(=O)NC3CC3)cnn12 (stereo in doubt) [I-463, (R)—N-cyclopropyl-7-(methylamino)-5-((6-(tetrahydro-2H-pyran-2-yl)pyridin-2-yl)amino) pyrazolo[1,5-a]pyrimidine-3-carboxamide] |  | 
< 50 | 9.00 to 9.70 | < 50 |  |  | CNc1cc(Nc2cccc(C3CCCCO3)n2)nc2c(C(=O)NC3CC3)cnn12 (stereo in doubt) [I-464, (S)—N-cyclopropyl-7-(methylamino)-5-((6-(tetrahydro-2H-pyran-2-yl)pyridin-2-yl)amino) pyrazolo[1,5-a]pyrimidine-3-carboxamide] |  | 
< 50 | 9.00 to 9.70 | < 50 |  |  | CNc1cc(Nc2cccn(CCOC3CC3)c2=O)nc2c(C(=O)NC3CC[C@H]3O)cnn12 (stereo in doubt) [I-515, 5-((1-(2-cyclopropoxyethyl)-2-oxo-1,2-dihydropyridin-3-yl)amino)-N-((1R,2R)-2-hydroxycyclobutyl)-7-(methylamino)pyrazolo[1,5-a]pyrimidine-3-carboxamide] |  | 
< 50 | > 9.70 | < 50 |  |  | CNc1cc(-c2cn(C(C)C)c3ncccc23)nc2c(C(=O)N[C@@H]3C[C@H]3O)cnn12 (stereo in doubt) [I-653, N-((1R,2R)-2-hydroxycyclopropyl)-5-(1-isopropyl-1H-pyrrolo[2,3-b]pyridin-3-yl)-7-(methylamino)pyrazolo[1,5-a]pyrimidine-3-carboxamide] |  | 
< 50 | 9.00 to 9.70 | < 50 |  |  | CNc1cc(Nc2cccn([C@H]3CCCOC3)c2=O)nc2c(C(=O)N[C@H]3CC[C@H](O)C3)cnn12 (stereo in doubt) [I-701, N-(3-hydroxycyclopentyl)-7-(methylamino)-5-((2-oxo-1-((R)-tetrahydro 2H-pyran-3-yl)-1,2-dihydropyridin-3-yl)amino)pyrazolo[1,5-a]pyrimidine-3-carboxamide] |  | 
< 50 | > 9.70 | < 50 |  |  | CNc1cc(-c2cn(C(C)C)c3ncccc23)nc2c(C(=O)N[C@H]3C[C@@H]3O)cnn12 (stereo in doubt) [I-733, N-((1 S,2S)-2-hydroxycyclopropyl)-5-(1-isopropyl-1H-pyrrolo[2,3-b]pyridin-3-yl)-7-(methylamino)pyrazolo[1,5-a]pyrimidine-3-carboxamide] |  | 
< 50 | > 9.70 | < 50 |  |  | CNc1cc(-c2cn(C(C)C)c3ncccc23)nc2c(C(=O)N[C@H]3COC[C@H]3O)cnn12 (stereo in doubt) [I-764, N-(4-hydroxytetrahydrofuran-3-yl)-5-(1-isopropyl-1H-pyrrolo[2,3-b]pyridin-3-yl)-7-(methylamino)pyrazolo[1,5-a]pyrimidine-3-carboxamide] |  | 
 | > 9.70 |  | < 50 | < 50 | CNc1cc(-c2cn(CCN3CCN(C)CC3)c3ncccc23)nc2c(C(=O)N[C@H]3CC[C@H]3O)cnn12 (stereo in doubt) [I-851, N-(2-hydroxycyclobutyl)-7-(methylamino)-5-(1-(2-(4-methylpiperazin-1-yl)ethyl)-1H-pyrrolo[2,3-b]pyridin-3-yl)pyrazolo[1,5-a]pyrimidine-3-carboxamide] |  | 
 | > 9.70 |  | < 50 | < 50 | CNc1cc(-c2cn(CCN3CCN(C)CC3)c3ncccc23)nc2c(C(=O)N[C@H]3CC[C@@H]3O)cnn12 (stereo in doubt) [I-852, N-(2-hydroxycyclobutyl)-7-(methylamino)-5-(1-(2-(4-methylpiperazin-1-yl)ethyl)-1H-pyrrolo[2,3-b]pyridin-3-yl)pyrazolo[1,5-a]pyrimidine-3-carboxamide] |  | 
 | > 9.70 |  | < 50 | < 50 | CNc1cc(-c2cn(CCN3CCN(C)CC3)c3ncccc23)nc2c(C(=O)N[C@H]3CC[C@@H]3OC)cnn12 (stereo in doubt) [I-885, N-(2-methoxycyclobutyl)-7-(methylamino)-5-(1-(2-(4-methylpiperazin-1-yl)ethyl)-1H-pyrrolo[2,3-b]pyridine-3-yl)pyrazolo[1,5-a]pyrimidine-3-carboxamide] |  | 
 | > 9.70 |  | < 50 | < 50 | CNc1cc(Nc2cccn([C@H]3C[C@@H]3F)c2=O)nc2c(C(=O)NCC3(CO)CC3)cnn12 (stereo in doubt) [I-1061, 5-((1-(2-fluorocyclopropyl)-2-oxo-1,2-dihydropyridin-3-yl)amino)-N-((1-(hydroxymethyl)cyclopropyl)methyl)-7-(methylamino)pyrazolo[1,5-a]pyrimidine-3-carboxamide] |  | 
 | > 9.70 |  | < 50 | < 50 | CNC(=O)c1occc1Nc1cc(NC)n2ncc(C(=O)N[C@H]3CC[C@@H]3OC)c2n1 (stereo in doubt) [I-1111, N-(2-methoxycyclobutyl)-7-(methylamino)-5-((2-(methylcarbamoyl)furan-3-yl)amino)pyrazolo[1,5-a]pyrimidine-3-carboxamide] |  | 
 | 9.00 to 9.70 |  | < 50 | < 50 | CNc1cc(Nc2cccn(C3CCCCC3)c2=O)nc2c(C(=O)N[C@H]3COC[C@H]3O)cnn12 (stereo in doubt) [I-1112, 5-((1-cyclohexyl-2-oxo-1,2-dihydropyridin-3-yl)amino)-N-(4-hydroxytetrahydrofuran-3-yl)-7-(methylamino)pyrazolo[1,5-a]pyrimidine-3-carboxamide] |  | 
< 50 | > 9.70 | < 50 |  |  | CNc1cc(Nc2cccn(-c3ccc(N4CCOCC4)cc3)c2=O)nc2c(C(N)=O)cnn12 [I-10] |  | 
< 50 | > 9.70 | < 50 |  |  | CNc1cc(Nc2cccc(N3CCOCC3)c2Cl)nc2c(C(N)=O)cnn12 [I-18] |  | 
< 50 | > 9.70 | < 50 |  |  | CNc1cc(Nc2cccn(-c3ccn(C4CC4)n3)c2=O)nc2c(C(N)=O)cnn12 [I-20] |  | 
